Read-outs that look alike come from different tables or passages of the source. Numbered stars: 1 amine (or outer) side, 2 acyl side, 3 side chain; on linkers, the order of the positions; unused ones are H or OH. Bridge positions count the residues as written; N and C are the ends. Square brackets hold non-standard residues; d marks the D form. Peptide text beside a SMILES is read from it. * marks the point of attachment. Leu(3R-OH,Nα-propionyl) = CCC(=O)N[C@H](C(=O)*)[C@H](O)C(C)C; X1 = CC(C)[C@@H](O[*:3])[C@H](N[*:1])C(=O)[*:2]; NMeT = CN[C@H](C(=O)O)[C@@H](C)O; dPhLac = O=C(O)[C@H](O)Cc1ccccc1; NMeA = CN[C@@H](C)C(=O)O; NMeDha = C=C(NC)C(=O)O
How the values were obtained:
[1] = test system: chemokine CXCR4; conditions: ref [10], [41]; cited from earlier work
[2] = test system: D3 dopamine receptor; set-up: method as in PMID 28522847; conditions: ref [40]; cited from earlier work
[3] = test system: hippocampal and cortical neurons; assay: Ca^2+ imaging (Fura-8 AM) in primary neuronal cultures; assay type: cell-based, mice; conditions: for elevation of [Ca^2+] / percentage of tested cells that responded to carbachol: 300 μM carbachol
Description: Primary neuronal cells were plated onto precoated cover slides at a density of 5 × 10^5 and maintained at 37 °C in a 5% CO2 humidified atmosphere. On DIV7, cells were loaded with the calcium-sensitive dye Fura-8 AM; 3 µM Fura-8 was added to normal growth medium and the cells incubated at 37 °C for 30 min. Cells were then washed and incubated with HBSS with or without 1 µM FR900359 for 30 min. Coverslips were then placed into a microscope chamber containing HBSS and assays were performed as described previously ([46]).

[4] = test system: muscarinic receptor; assay: [^3H]NMS binding on intact primary neuronal cells; set-up: species or system mice; conditions: read-out: dissociation constant (Kd) of the radioligand
Description: Primary neuronal cells were seeded at a density of 5 × 10^4 cells/well onto a 96-well plate and maintained at 37 °C in a 5% CO2 humidified atmosphere. On the sixth day in vitro, cells were washed twice with binding buffer (110 mM NaCl, 5.4 mM KCl, 1.8 mM CaCl2, 1 mM MgSO4, 25 mM glucose, 20 mM 4-(2-hydroxyethyl)-1-piperazineethanesulfonic acid [HEPES], 58 mM sucrose). A range of [^3H]NMS concentrations (between 0 and 10 nM) were added to appropriate wells containing buffer or 10-µM atropine to determine total and nonspecific binding in 100 µL of final-volume binding buffer. Plates were incubated for 2 h at 37 °C and the reactions were terminated by removal of the binding mixture followed by 3 × 200 µL/well ice-cold NaCl 0.9% washes. We added 100 µL/well of Microscint-20, and the plates were sealed before overnight incubation at room temperature on a rapidly shaking platform. Bound ligand was determined using a Packard Topcount NXT (Perkin-Elmer Life Sciences).

[5] = target: muscarinic receptor (total muscarinic-receptor subtypes); assay: [^3H]NMS saturation binding on membrane preparations of cortex and hippocampus; set-up: species or system mice; conditions: mean ± SD, five animals
Excerpt: We performed [^3H]NMS-binding studies on membrane preparations as described previously ([20]).

CC1(C)CN2C(CSC(=NC3CCCCC3)NC3CCCCC3)=CSC2=N1 [IT1t]
effect on dimers of CXCR4 [1]: disrupt dimers of the chemokine CXCR4

O=C(CCCN1CCC(O)(c2ccc(Cl)cc2)CC1)c1ccc(F)cc1 [haloperidol]
effect on dimers of the D3 dopamine receptor [2]: destabilize dimers of the D3 dopamine receptor

C[N+](C)(C)CCOC(N)=O [carbachol]
elevation of [Ca^2+] ([3]; cells from M1-KO mice): did not promote a large increase of [Ca^2+]
elevation of [Ca^2+] ([3]; neuronal cultures from WT and homozygous M1-mEGFP mice): promoted elevation of [Ca^2+]
percentage of tested cells that responded to carbachol ([3]; neurons from M1-mEGFP mice, mean ± SD): 36.7% ± 4.0%
percentage of tested cells that responded to carbachol ([3]; neurons from WT mice): 26.8% ± 3.4%

Nc1ncnc2c1ncn2[C@@H]1O[C@H](COP(=O)(O)OP(=O)(O)OP(=O)(O)O)[C@@H](O)[C@H]1O [adenosine triphosphate]
elevation of intracellular [Ca^2+] ([3]; 10 μM ATP added after carbachol, cells from M1-KO mice): able to elicit rapid elevation of intracellular [Ca^2+]

C=C1C(=O)N[C@@H](C)C(=O)N(C)[C@@H](C)C(=O)N[C@@H]([C@H](OC(=O)[C@@H](NC(=O)CC)[C@H](O)C(C)C)C(C)C)C(=O)N(C)[C@@H]([C@@H](C)OC)C(=O)O[C@H](C(C)C)[C@H](NC(C)=O)C(=O)O[C@H](Cc2ccccc2)C(=O)N1C [FR900359] (Ac-[X1][dPhLac][NMeDha]A[NMeA][X1](Leu(3R-OH,Nα-propionyl))[NMeT](Me); ester 1-C)
effect on carbachol-induced elevation of [Ca^2+] ([3]; pretreatment with 1 µM FR900359 for 30 min, P < 0.001): prevented

O=C(CCCN1CCC2(CC1)C(=O)NCN2c1ccccc1)c1ccc(F)cc1 [spiperone]
effect on dimers of the D3 dopamine receptor [2]: destabilize dimers of the D3 dopamine receptor
